Assay results: patent publication US20260356817A1, “AMINOPYRIMIDINE AND AMINOTRIAZINE DERIVATIVES AS MYC PROTEIN MODULATORS” (Sanford Burnham Prebys Medical Discovery Institute, priority 2022, published 2026)
Read-outs that look alike come from different tables or passages of the source.

Test system: Myc
Experiment: Myc inhibition assay: Myc expression per cell by anti-Myc immunofluorescence, high-content imaging
Format: cell-based, human (patient-derived medulloblastoma xenograft cells)
Details: medulloblastoma PDX cells, 4 h
Source text: To identify Myc inhibitors, cells isolated from patient-derived orthotopic xenografts (PDXs) from patients with Myc-driven medulloblastoma were used. Specifically, PDX cells were propagated by transplantation directly into the cerebellum of immunodeficient (NSG) mice and were never passaged in vitro in order to maintain properties of the tumor from which they were derived. Tumor tissues were isolated from tumor-bearing animals, dissociated into a single-cell suspension, resuspended in serum-free media, and immediately plated in 384 well plates. After overnight recovery, compounds were added to each well, and cells were incubated for 4 hours before being fixed and stained with anti-Myc antibodies and with DAPI to label nuclei. Cells were then analyzed using high-content imaging to determine the levels of Myc expression per cell and IC50 values of the compounds.

[1] = Table 1, read-out: IC50 (Myc inhibition)
[2] = Table 2, read-out: MYC Inhibition IC50

Structure (SMILES) | IC50 [1] [nM] | IC50 [2] [nM]
O=C(Nc1ccccc1)c1cccc(Nc2nccc(-c3ccc4[nH]cnc4c3)n2)c1 [Compound 263, 3-((4-(1H-benzo[d]imidazol-5-yl)pyrimidin-2-yl)amino)-N-phenylbenzamide] | < 200 | < 200
O=c1[nH]c2ccc(-c3ccnc(Nc4cccc(C(F)(F)F)c4)n3)cc2[nH]1 [Compound 116, 5-(2-((3-(trifluoromethyl)phenyl)amino)pyrimidin-4-yl)-1H-benzo[d]imidazol-2(3H)-one] | 10000 to 100000 | 10000 to 100000
c1cc(-c2ccc3[nH]cnc3c2)nc(Nc2ccc3c(c2)CCC3)n1 [Compound 97, 4-(1H-benzo[d]imidazol-5-yl)-N-(2,3-dihydro-1H-inden-5-yl)pyrimidin-2-amine] | 1000 to 10000 | 1000 to 10000
FC(F)(F)c1cccc(Nc2nccc(-c3ccc4cn[nH]c4c3)n2)c1 [Compound 164, 4-(1H-indazol-6-yl)-N-(3-(trifluoromethyl)phenyl)pyrimidin-2-amine] | 1000 to 10000 | 1000 to 10000
CN(c1ccccc1)c1nccc(-c2cccc(O)n2)n1 [Compound 225, 6-(2-(methyl(phenyl)amino)pyrimidin-4-yl)pyridin-2-ol] | 10000 to 100000 | 10000 to 100000
CC(C)n1cc(Nc2nccc(-c3ccc4[nH]cnc4c3)n2)cn1 [Compound 21, 4-(1H-benzo[d]imidazol-5-yl)-N-(1-isopropyl-1H-pyrazol-4-yl)pyrimidin-2-amine] | 200 to 1000 | 200 to 1000
c1cc(-c2ccc3[nH]cnc3c2)nc(Nc2cnn(C3CCOCC3)c2)n1 [Compound 6, 4-(1H-benzo[d]imidazol-5-yl)-N-(1-(tetrahydro-2H-pyran-4-yl)-1H-pyrazol-4-yl)pyrimidin-2-amine] | 1000 to 10000 | 1000 to 10000
c1cc(Nc2nccc(-c3ccc4[nH]cnc4c3)n2)cc(N2CCOCC2)c1 [Compound 102, 4-(1H-benzo[d]imidazol-5-yl)-N-(3-morpholinophenyl)pyrimidin-2-amine] | < 200 | < 200
FC(F)(F)c1cccc(Nc2nccc(-c3cn4ccnc4cn3)n2)c1 [Compound 107, 4-(Imidazo[1,2-a]pyrazin-6-yl)-N-(3-(trifluoromethyl)phenyl)pyrimidin-2-amine] | 1000 to 10000 | 1000 to 10000
CN(C)C(=O)c1cccc(Nc2nccc(-c3ccc4[nH]cnc4c3)n2)c1 [Compound 18, 3-((4-(1H-benzo[d]imidazol-5-yl)pyrimidin-2-yl)amino)-N,N-dimethylbenzamide] | 1000 to 10000 | 1000 to 10000
FC(F)c1cccc(Nc2cc(-c3ccc4[nH]cnc4c3)ccn2)n1 [Compound 278, N-(4-(1H-benzo[d]imidazol-5-yl)pyridin-2-yl)-6-(difluoromethyl)pyridin-2-amine] | < 200 | < 200
CN(c1cccc(Nc2nccc(-c3ccc4[nH]cnc4c3)n2)c1)S(=O)(=O)c1ccccc1 [Compound 262, N-(3-((4-(1H-benzo[d]imidazol-5-yl)pyrimidin-2-yl)amino)phenyl)-N-methylbenzenesulfonamide] | 1000 to 10000 | 1000 to 10000
FC(F)(F)c1cccc(Nc2nccc(N3CCc4[nH]cnc4C3)n2)c1 [Compound 112, 4-(1,4,6,7-tetrahydro-5H-imidazo[4,5-c]pyridin-5-yl)-N-(3-(trifluoromethyl)phenyl)pyrimidin-2-amine] | 1000 to 10000 | 1000 to 10000
O=C(Nc1cccc(Nc2nccc(-c3ccc4[nH]cnc4c3)n2)c1)c1ccco1 [Compound 254, N-(3-((4-(1H-benzo[d]imidazol-5-yl)pyrimidin-2-yl)amino)phenyl)furan-2-carboxamide] | < 200 | < 200
FC(F)(F)Oc1ccccc1Nc1nccc(-c2ccc3[nH]cnc3c2)n1 [Compound 79, 4-(1H-benzo[d]imidazol-5-yl)-N-(2-(trifluoromethoxy)phenyl)pyrimidin-2-amine] | 200 to 1000 | 200 to 1000
COc1cccc(-c2ccnc(Nc3ccccc3)c2)c1 [Compound 246, 4-(3-Methoxyphenyl)-N-phenylpyridin-2-amine] | 10000 to 100000 | 10000 to 100000
Cc1ccc(Nc2nccc(-c3ccc4[nH]cnc4c3)n2)cc1 [Compound 103, 4-(1H-benzo[d]imidazol-5-yl)-N-(p-tolyl)pyrimidin-2-amine] | 200 to 1000 | 200 to 1000
COc1cccc(-c2ccnc(Nc3ccccc3)n2)c1 [Compound 253, 4-(3-methoxyphenyl)-N-phenylpyrimidin-2-amine] | 10000 to 100000 | 10000 to 100000
FC(F)(F)c1cccc(Nc2cc(-c3ccc4[nH]cnc4c3)ccn2)c1 [Compound 52, 4-(1H-benzo[d]imidazol-5-yl)-N-(3-(trifluoromethyl)phenyl)pyridin-2-amine] | 1000 to 10000 | 1000 to 10000
Clc1ccc(Nc2nccc(-c3ccc4[nH]cnc4c3)n2)cc1Cl [Compound 98, 4-(1H-benzo[d]imidazol-5-yl)-N-(3,4-dichlorophenyl)pyrimidin-2-amine] | 200 to 1000 | 200 to 1000
c1cc(-c2ccc3[nH]cnc3c2)nc(Nc2ccc3sccc3c2)n1 [Compound 269, N-(benzo[b]thiophen-5-yl)-4-(1H-benzo[d]imidazol-5-yl)pyrimidin-2-amine] | 200 to 1000 | 200 to 1000
c1cc(-c2ccc3[nH]cnc3c2)nc(NC2CCCC2)n1 [Compound 88, 4-(1H-benzo[d]imidazol-5-yl)-N-cyclopentylpyrimidin-2-amine] | 1000 to 10000 | 1000 to 10000

Continued, values first:

IC50 [1] [nM] | IC50 [2] [nM] | Structure (SMILES)
1000 to 10000 | 1000 to 10000 | COc1cccc(Nc2nccc(-c3ccnc(OC)c3)n2)c1 [Compound 192, N-(3-methoxyphenyl)-4-(2-methoxypyridin-4-yl)pyrimidin-2-amine]
1000 to 10000 | 1000 to 10000 | Oc1ccc(-c2ccnc(Nc3cccc(F)c3)n2)cc1 [Compound 194, 4-(2-((3-fluorophenyl)amino)pyrimidin-4-yl)phenol]
200 to 1000 | 200 to 1000 | FC(F)(F)c1cccc(Nc2nccc(-c3cnc4cc[nH]c4c3)n2)c1 [Compound 132, 4-(1H-pyrrolo[3,2-b]pyridin-6-yl)-N-(3-(trifluoromethyl)phenyl)pyrimidin-2-amine]
1000 to 10000 | 1000 to 10000 | Oc1ccc(-c2ccnc(Nc3ccccc3)n2)cn1 [Compound 238, 5-(2-(phenylamino)pyrimidin-4-yl)pyridin-2-ol]
10000 to 100000 | 10000 to 100000 | Oc1cc(-c2ccnc(Nc3ccccc3F)n2)ccn1 [Compound 207, 4-(2-((2-fluorophenyl)amino)pyrimidin-4-yl)pyridin-2-ol]
1000 to 10000 | 1000 to 10000 | COc1ncc(-c2ccnc(Nc3cccc(F)c3)n2)s1 [Compound 180, N-(3-fluorophenyl)-4-(2-methoxythiazol-5-yl)pyrimidin-2-amine]
1000 to 10000 | 1000 to 10000 | COc1cc(-c2ccnc(Nc3cccc(C(N)=O)c3)n2)ccn1 [Compound 198, 3-((4-(2-methoxypyridin-4-yl)pyrimidin-2-yl)amino)benzamide]
1000 to 10000 | 1000 to 10000 | COc1cc(-c2ccnc(Nc3cccc(OCCO)c3)n2)ccn1 [Compound 129, 2-(3-((4-(2-methoxypyridin-4-yl)pyrimidin-2-yl)amino)phenoxy)ethan-1-ol]
10000 to 100000 | 10000 to 100000 | COc1cc(-c2ccnc(Nc3ccnc(C(F)(F)F)c3)n2)ccn1 [Compound 157, 4-(2-methoxypyridin-4-yl)-N-(2-(trifluoromethyl)pyridin-4-yl)pyrimidin-2-amine]
1000 to 10000 | 1000 to 10000 | COc1cc(-c2ccnc(Nc3cccc(C)c3)n2)ccn1 [Compound 160, 4-(2-methoxypyridin-4-yl)-N-(m-tolyl)pyrimidin-2-amine]
200 to 1000 | 200 to 1000 | Oc1ccc(-c2ccnc(Nc3cccc(C(F)(F)F)c3)n2)cc1 [Compound 130, 4-(2-((3-(Trifluoromethyl)phenyl)amino)pyrimidin-4-yl)phenol]
10000 to 100000 | 10000 to 100000 | COc1cc(-c2ccnc(Nc3cccc(F)c3F)n2)ccn1 [Compound 206, N-(2,3-difluorophenyl)-4-(2-methoxypyridin-4-yl)pyrimidin-2-amine]
< 200 | < 200 | CCCc1cccc(Nc2nccc(-c3cnc4nc[nH]c4c3)n2)c1 [Compound 133, 4-(1H-imidazo[4,5-b]pyridin-6-yl)-N-(3-propylphenyl)pyrimidin-2-amine]
200 to 1000 | 200 to 1000 | c1cc(-c2ccc3[nH]cnc3c2)nc(Nc2ccsc2)n1 [Compound 68, 4-(1H-benzo[d]imidazol-5-yl)-N-(thiophen-3-yl)pyrimidin-2-amine]
200 to 1000 | 200 to 1000 | Oc1cc(-c2ccnc(Nc3cccc(F)c3)n2)ccn1 [Compound 242, 4-(2-((3-fluorophenyl)amino)pyrimidin-4-yl)pyridin-2-ol]
200 to 1000 | 200 to 1000 | Oc1cc(-c2ccnc(Nc3cncc(C(F)(F)F)c3)n2)ccn1 [Compound 154, 4-(2-((5-(trifluoromethyl)pyridin-3-yl)amino)pyrimidin-4-yl)pyridin-2-ol]
1000 to 10000 | 1000 to 10000 | COc1cccc(Nc2nccc(-c3cccc(OC)c3)n2)c1 [Compound 250, N,4-bis(3-methoxyphenyl)pyrimidin-2-amine]
200 to 1000 | 200 to 1000 | Oc1ccc(-c2ccnc(Nc3cccc(C(F)(F)F)c3)n2)cn1 [Compound 211, 5-(2-((3-(trifluoromethyl)phenyl)amino)pyrimidin-4-yl)pyridin-2-ol]
